Tests used:
[1] = Stability in blood plasma, mouse; format: in vitro ADME; details: for Content, % from the initial, Mean (n = 2): mouse blood plasma, 1 μM, 37° C.
Procedure: (§1) Compound 1 at a concentration of 1 μM was incubated for 24 hours in the blood plasma of human and various animal species (rats, mice, guinea pigs, rabbits, horses, dogs, bull, pygmy hogs) at 37° C. Aliquots were taken at time points of 0, 0.25, 1, 2, 4, 8 and 24 hours. In the case of blood plasma of rabbits and monkeys, Compound 1 was incubated for 4 hours, and aliquots were taken at time points 0, 0.25, 1, 4. After the protein precipitation with acetonitrile, samples were analyzed by HPLC-MS/MS to determine the concentration of Compound 1. Verapamil was used as a stable control.

[2] = biological target: T1, tachykinin receptor type 1 (NK1R) (Homo sapiens, UniProt P25103); test: Activity of tachykinin receptor type 1 (NK1R), intracellular calcium, U373 cells; format: cell-based; details: antagonist, [Sar9, Met(O2)11]-SP (1 nM)
T1 construct: endogenous in cells; host or cells: U373 cells
Procedure: Compound 1 dissolved in DMSO to a concentration of 100 mM; then a stock solution was serially diluted with DMSO. The maximum starting concentration of the substance is 100 μM. The effect was determined at 5 concentrations of the tested compounds, each concentration was studied twice. U373 cells expressing NK1R were used in the experiment, said cells, after the preincubation with an [Sar9, Met(O2)11]-SP (1 nM) […], were incubated with Compound 1. The activity of receptors was determined according to the intracellular calcium concentration by the fluorescence spectroscopy (Glia. 1992; 6(2):89-95).

[3] = Pharmacokinetics in blood plasma after oral administration; format: in vivo; details: rats, 3 mg/kg, 24 hours sampling, HPLC-MS/MS, limit of quantitation 1 ng/ml
Procedure: To confirm low systemic availability of Compound 1, the study pharmacokinetics and bioavailability of Compound 1 after oral administration to rats in a dose of 3 mg/kg was conducted. Sampling of blood from animals was performed at specified time points for 24 hours after the drug administration. The content of Compound 1 in plasma samples was analyzed by HPLC-MS/MS, the limit of quantitation was 1 ng/ml.

[4] = biological target: T2, human recombinant cathepsin S (Homo sapiens, UniProt P25774); test: Effect on the enzymatic activity of cathepsin S; format: biochemical; details: inhibitor; preincubated 15 minutes at 37° C.; substrate Z-Phe-Arg-AMC (6 μM)
T2 construct: host or cells: E. coli
Procedure: Compound 1 was dissolved in DMSO to a concentration of 100 mM; then a stock solution was serially diluted with DMSO. The maximum starting concentration of the substance is 100 μM. The effect was determined at 5 concentrations of the tested compounds, each concentration was studied twice. A human recombinant cathepsin S, expressed in E. coli was used in the experiment. Test compounds were preincubated for 15 minutes at 37° C. with an enzyme whose activity was determined by the rate of transformation of the substrate Z-Phe-Arg-AMC (6 μM) by the fluorescence spectroscopy (Protein Sci. 1996 April; 5(4):789-91).

[5] = Stability in blood plasma, pygmy hog; format: in vitro ADME; details: 1 μM, 37° C.
Procedure: as §1

model of Crohn's disease = test: Mouse model of Crohn's disease (TNBS); format: in vivo, male balb/c mice
Procedure: The study was performed on male balb/c mice. Animals, which starved for 24 hours, were injected with 150 μl/mouse of TNBS solution in 50% ethanol into the rectal hole of the mouse to the depth of 4 cm using a 3.5 F catheter. Next, the mice were turned upside down and held for 60 seconds. 150 μl of the 50% ethanol solution was injected into the healthy control (intact animals). The study lasted 7 days. The development of pathology was assessed by the death of animals.

[6] = Stability in blood plasma, guinea pig; format: in vitro ADME; details: for Content, % from the initial, Mean (n = 2): guinea pig blood plasma, 1 μM, 37° C.
Procedure: as §1

[7] = test system: imiquimod-induced psoriasis on the back; test: Mouse model of imiquimod-induced psoriasis on the back; format: in vivo; details: for The gain of the thickness of the back skin to the thickness before the start of the study: 0.3% ointment, M ± m, n = 10
Procedure: Psoriasis was simulated in female balb/c mice by applying Aldar cream (5% imiquimod) on a previously shaved skin back area of 3×4 cm daily 1 time per day for 15 days (J Immunol. 2009 May 1; 182(9):5836-45). Intact animals were applied with vaseline: 120 mg per the shaved back area.
The assessment of the development of pathology was performed on the 10th, 12th, 13th and 15th day before the next application of Aldar cream according to the index: the thickness of the skin fold on the back. The thickness of the skin fold on the back was measured with a Digimatic MK-25 micrometer (Mitutoyo, Japan).

indomethacin colitis = test: Model of colitis induced by indomethacin; format: in vivo, male Wistar rats; details: 100 mg/kg; day 4; M ± m, n = 10
Procedure: The study was performed on male Wistar rats, which were subcutaneously injected with an indomethacin solution in a dose of 9 mg/kg for two days running to induce colitis. The injection solution was prepared as follows: first, indomethacin was dissolved in 100% ethanol, then it was diluted in 5% NaHCO3 solution. On the 4th day after euthanasia, the stomach and intestine were removed from the animals in the CO2 chamber, then the caecum was excised, 10 cm from the ileum and large intestine was cut off, and 5 cm—from the caecum, to assess gross lesions (J Ethnopharmacol. 2004 February; 90(2-3): 195-204).

[8] = Chronic (90-day) oral administration, body weight of rabbits; format: in vivo, Chinchilla rabbits; details: for period in which the lag in body weight gain was observed: female rabbits, daily intragastric
Procedure: The effect of 90-day, oral administration of Compound 1 in doses of 1.5 mg/kg, 7.5 mg/kg and 15 mg/kg on the body weight of male and female Chinchilla rabbits was studied.

[9] = 90-day oral, 1.5, 7.5 and 15 mg/kg, male and female rabbits

T2 sequence (P25774 115-331): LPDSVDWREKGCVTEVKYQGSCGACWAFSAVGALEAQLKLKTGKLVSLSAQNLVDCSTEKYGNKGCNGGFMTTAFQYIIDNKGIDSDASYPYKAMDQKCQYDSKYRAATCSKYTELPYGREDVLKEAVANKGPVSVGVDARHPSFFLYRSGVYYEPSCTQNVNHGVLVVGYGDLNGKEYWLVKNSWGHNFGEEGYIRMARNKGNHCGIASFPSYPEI
T1 sequence (P25103 whole entry): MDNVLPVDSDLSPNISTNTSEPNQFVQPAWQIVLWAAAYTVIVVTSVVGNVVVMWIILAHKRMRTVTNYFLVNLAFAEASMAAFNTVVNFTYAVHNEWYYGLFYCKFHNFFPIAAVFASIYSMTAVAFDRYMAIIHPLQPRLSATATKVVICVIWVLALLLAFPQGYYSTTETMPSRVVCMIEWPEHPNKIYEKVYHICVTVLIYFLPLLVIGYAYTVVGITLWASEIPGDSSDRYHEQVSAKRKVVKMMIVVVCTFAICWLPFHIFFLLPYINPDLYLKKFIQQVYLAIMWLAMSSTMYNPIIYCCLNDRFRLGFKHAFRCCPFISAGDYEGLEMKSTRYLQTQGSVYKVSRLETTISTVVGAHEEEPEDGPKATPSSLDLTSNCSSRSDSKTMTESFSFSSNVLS

**Q.** What does the source list for `O=C(Cc1ccc(O)cc1)N[C@@H](Cc1ccccc1)C(=O)OCc1ccccc1` [Compound 1, benzyl (2S)-2-[2-(4-hydroxyphenyl)acetamido]-3-phenylpropanoate]?
**A.** hydrolysis in the blood plasma (in words) ([1]; blood plasma of mice, after 15 minutes): almost completely hydrolyzed; Content, % from the initial, Mean (n = 2) ([1]; 0 hour): 100%; Content, % from the initial, Mean (n = 2) ([1]; 0.25 hour): 0.00%; Content, % from the initial, Mean (n = 2) ([1]; 1 hour): 0.00%; Content, % from the initial, Mean (n = 2) ([1]; 2 hour): 0.00%; Content, % from the initial, Mean (n = 2) ([1]; 4 hour): 0.00%; Content, % from the initial, Mean (n = 2) ([1]; 8 hour): 0.00%; Content, % from the initial, Mean (n = 2) ([1]; 24 hour): 0.00%; IC50 [2]: 4.1 µM; content in blood plasma after oral administration [3]: not detected; IC50 [4]: 6.7 µM; Content, % from the initial, Mean (n = 2) ([5]; 0 hour): 100%; Content, % from the initial, Mean (n = 2) ([5]; 0.25 hour): 92.6%; Content, % from the initial, Mean (n = 2) ([5]; 1 hour): 61.8%; Content, % from the initial, Mean (n = 2) ([5]; 2 hour): 35.9%; Content, % from the initial, Mean (n = 2) ([5]; 4 hour (so in the source)): 2.68%; Content, % from the initial, Mean (n = 2) ([5]; time cell empty (last line)): 0.15%; Content, % from the initial, Mean (n = 2) ([5]; time cell empty (line after 2 hour)): 15.9%; The portion of dead animals (model of Crohn's disease; 50 mg/kg, 1 time per day, TNBS, 7 days, 10 animals): 30%; decrease of the death of animals (model of Crohn's disease; summary of Table 4): more than 2 times; hydrolysis in the blood plasma (in words) ([6]; blood plasma of guinea pigs, after 15 minutes): almost completely hydrolyzed; Content, % from the initial, Mean (n = 2) ([6]; 0 hour): 100%; Content, % from the initial, Mean (n = 2) ([6]; 0.25 hour): 0.00%; Content, % from the initial, Mean (n = 2) ([6]; 1 hour): 0.00%; Content, % from the initial, Mean (n = 2) ([6]; 2 hour): 0.00%; Content, % from the initial, Mean (n = 2) ([6]; 4 hour): 0.00%; Content, % from the initial, Mean (n = 2) ([6]; 8 hour): 0.00%; Content, % from the initial, Mean (n = 2) ([6]; 24 hour): 0.00%; The gain of the thickness of the back skin to the thickness before the start of the study ([7]; day 10): 23.1%; The gain of the thickness of the back skin to the thickness before the start of the study ([7]; day 12): 19.9%; The gain of the thickness of the back skin to the thickness before the start of the study ([7]; day 13): 20.5%; The gain of the thickness of the back skin to the thickness before the start of the study ([7]; day 15): 22.4%; reduction of the gain of the thickness of the skin fold of the affected skin area ([7]; summary of table 2): 2 times; Macroscopic assessment of the lesion, Caecum (indomethacin colitis): 0.4 ± 0.2 points; Macroscopic assessment of the lesion, Ileum (indomethacin colitis): 0.6 ± 0.3& points; Macroscopic assessment of the lesion, Large intestine (indomethacin colitis): 0.2 ± 0.1& points; Macroscopic assessment of the lesion, Overall assessment (indomethacin colitis): 1.2 ± 0.4*& points; general condition, appearance, and mobility [8, 9]: satisfactory and did not differ in the experimental and control groups; weight gain compared with parallel controls [8, 9]: somewhat lagging behind in weight gain; feed and water intake ([8]; accompanying the decrease in body weight gain): decrease in feed and water intake; period in which the lag in body weight gain was observed ([8]; 7.5 mg/kg): practically, during the entire period of the drug administration; period in which the lag in body weight gain was observed ([8]; 15 mg/kg): practically, during the entire period of the drug administration; dynamics of the body weight in the recovery period ([8]; recovery period, control versus experimental animals): no differences in the dynamics of the body weight
